Experimental data: PubChem BioAssay (NCI)
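Following 48 hours of exposure in 96-well plates, responses at five concentrations were used to interpolate endpoints linearly. The concentration for 50% growth inhibition is given as GI50. At the TGI there is no net growth.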

What was measured:
Assay in all cases: NCI anticancer screen, dose series, 48 h
SK-MEL-2 melanoma = system: SK-MEL-2 melanoma
IGROV1 ovarian = system: IGROV1 ovarian
OVCAR-4 ovarian = system: OVCAR-4 ovarian
RXF 393 renal = system: RXF 393 renal
HCT-15 colon = system: HCT-15 colon
NCI-H460 lung = system: NCI-H460 lung
SF-295 CNS = system: SF-295 CNS
NCI-H226 lung = system: NCI-H226 lung
SK-OV-3 ovarian = system: SK-OV-3 ovarian
UACC-62 melanoma = system: UACC-62 melanoma
SK-MEL-5 melanoma = system: SK-MEL-5 melanoma
HOP-92 NSCLC = system: HOP-92 NSCLC
MCF7 breast = system: MCF7 breast
NCI/ADR-RES ovarian = system: NCI/ADR-RES ovarian
U251 CNS = system: U251 CNS
DU-145 prostate = system: DU-145 prostate
A498 renal = system: A498 renal
EKVX NSCLC = system: EKVX NSCLC
CCRF-CEM leukemia = system: CCRF-CEM leukemia
LOX IMVI melanoma = system: LOX IMVI melanoma
SNB-75 CNS = system: SNB-75 CNS
MDA-MB-435 = system: MDA-MB-435
UACC-257 melanoma = system: UACC-257 melanoma
ACHN renal = system: ACHN renal
RPMI-8226 leukemia = system: RPMI-8226 leukemia
OVCAR-8 ovarian = system: OVCAR-8 ovarian
A549 NSCLC = system: A549 NSCLC
COLO 205 colon = system: COLO 205 colon
SK-MEL-28 melanoma = system: SK-MEL-28 melanoma

**Q.** With `O=C(Cn1c2ccccc2c2ccncc21)N/N=C\c1ccc2ccccc2c1` as the compound, how does the GI50 (SK-MEL-2 melanoma) read?
**A.** 19.2 µM

**Q.** What about the TGI (SK-MEL-2 melanoma) of the same compound?
**A.** 42 µM

**Q.** What about the GI50 (IGROV1 ovarian) of the same compound?
**A.** 13 µM

**Q.** What about the TGI (IGROV1 ovarian) of the same compound?
**A.** 38.3 µM

**Q.** And the GI50 (OVCAR-4 ovarian)?
**A.** 15.4 µM

**Q.** And the TGI (OVCAR-4 ovarian)?
**A.** 80.8 µM

**Q.** And the GI50 (RXF 393 renal)?
**A.** 19 µM

**Q.** What about the TGI (RXF 393 renal) of the same compound?
**A.** 54.4 µM

**Q.** What about the GI50 (HCT-15 colon) of the same compound?
**A.** 14.7 µM

**Q.** And the TGI (HCT-15 colon)?
**A.** > 100 µM

**Q.** What about the GI50 (NCI-H460 lung) of the same compound?
**A.** 13.9 µM

**Q.** What about the TGI (NCI-H460 lung) of the same compound?
**A.** 39.9 µM

**Q.** And the GI50 (SF-295 CNS)?
**A.** 14.8 µM

**Q.** What about the TGI (SF-295 CNS) of the same compound?
**A.** 34.6 µM

**Q.** What about the GI50 (NCI-H226 lung) of the same compound?
**A.** 21.9 µM

**Q.** And the TGI (NCI-H226 lung)?
**A.** 65.2 µM

**Q.** And the GI50 (SK-OV-3 ovarian)?
**A.** 18.2 µM

**Q.** What about the TGI (SK-OV-3 ovarian) of the same compound?
**A.** 39.4 µM

**Q.** What about the GI50 (UACC-62 melanoma) of the same compound?
**A.** 18 µM

**Q.** And the TGI (UACC-62 melanoma)?
**A.** 42.9 µM

**Q.** What about the GI50 (SK-MEL-5 melanoma) of the same compound?
**A.** 23 µM

**Q.** What about the TGI (SK-MEL-5 melanoma) of the same compound?
**A.** > 100 µM

**Q.** What about the GI50 (HOP-92 NSCLC) of the same compound?
**A.** 12.4 µM

**Q.** What about the TGI (HOP-92 NSCLC) of the same compound?
**A.** 36.7 µM

**Q.** And the GI50 (MCF7 breast)?
**A.** 14.3 µM

**Q.** And the TGI (MCF7 breast)?
**A.** > 100 µM

**Q.** And the GI50 (NCI/ADR-RES ovarian)?
**A.** 15.8 µM

**Q.** What about the TGI (NCI/ADR-RES ovarian) of the same compound?
**A.** > 100 µM

**Q.** And the GI50 (U251 CNS)?
**A.** 14.5 µM

**Q.** What about the TGI (U251 CNS) of the same compound?
**A.** 29.5 µM

**Q.** What about the GI50 (DU-145 prostate) of the same compound?
**A.** 23.9 µM

**Q.** What about the TGI (DU-145 prostate) of the same compound?
**A.** > 100 µM

**Q.** And the GI50 (A498 renal)?
**A.** 27.5 µM

**Q.** And the TGI (A498 renal)?
**A.** 80.8 µM

**Q.** And the GI50 (EKVX NSCLC)?
**A.** 24.8 µM

**Q.** And the TGI (EKVX NSCLC)?
**A.** > 100 µM

**Q.** And the GI50 (CCRF-CEM leukemia)?
**A.** 45.1 µM

**Q.** And the TGI (CCRF-CEM leukemia)?
**A.** > 100 µM

**Q.** And the GI50 (LOX IMVI melanoma)?
**A.** 28.6 µM

**Q.** What about the TGI (LOX IMVI melanoma) of the same compound?
**A.** > 100 µM

**Q.** And the GI50 (SNB-75 CNS)?
**A.** 22.2 µM

**Q.** And the TGI (SNB-75 CNS)?
**A.** 61.6 µM

**Q.** And the GI50 (MDA-MB-435)?
**A.** 17.1 µM

**Q.** And the TGI (MDA-MB-435)?
**A.** 63.3 µM

**Q.** What about the GI50 (UACC-257 melanoma) of the same compound?
**A.** 42.1 µM

**Q.** And the TGI (UACC-257 melanoma)?
**A.** > 100 µM

**Q.** And the GI50 (ACHN renal)?
**A.** 19.3 µM

**Q.** What about the TGI (ACHN renal) of the same compound?
**A.** 48.5 µM

**Q.** And the GI50 (RPMI-8226 leukemia)?
**A.** 7.88 µM

**Q.** And the TGI (RPMI-8226 leukemia)?
**A.** > 100 µM

**Q.** What about the GI50 (OVCAR-8 ovarian) of the same compound?
**A.** 27.8 µM

**Q.** And the TGI (OVCAR-8 ovarian)?
**A.** > 100 µM

**Q.** And the GI50 (A549 NSCLC)?
**A.** 20.9 µM

**Q.** What about the TGI (A549 NSCLC) of the same compound?
**A.** 57.1 µM

**Q.** What about the GI50 (COLO 205 colon) of the same compound?
**A.** 25.8 µM

**Q.** And the TGI (COLO 205 colon)?
**A.** > 100 µM

**Q.** And the GI50 (SK-MEL-28 melanoma)?
**A.** 19.2 µM
